Test results reported in patent US20220087987A1, “A METHOD FOR TREATING SWI/SNF COMPLEX-DEFICIENT CANCERS COMPRISING GLUTATHIONE (GSH) METABOLIC PATHWAY INHIBITOR” (National Cancer Center, priority 2018, published 2022).
Where two headings read alike, the source gives them in different places. Numbered stars: 1 amine (or outer) side, 2 acyl side, 3 side chain; on linkers, the order of the positions; unused ones are H or OH. Bridge positions count the residues as written; N and C are the ends. Square brackets hold non-standard residues; d marks the D form. Peptide text beside a SMILES is read from it. I, II: the chains in the order shown. Actinocin(9to1) = Cc1c2oc3c(C)ccc(C(=O)[*:1])c3nc-2c(C(=O)[*:2])c(N)c1=O; NMeV = CN[C@H](C(=O)O)C(C)C; Sar = CNCC(=O)O

What was measured:
ARID1A-WT HCT116 cells = assay: Drug library screen, cell viability (CellTiter-Glo); assay type: cell-based, human; design: key to Cell viability, WT: % viability relative to DMSO solvent-treated cells
Method: (§1) ARID1A-WT and ARID1A-KO HCT116 cancer cells were used for screening assays. […] Cell viability was assessed after 5 days using the CellTiter-Glo Luminescent Cell Viability Assay (Promega). Luminescence was measured using an Envision Multi-label plate reader (PerkinElmer). The luminescence reading was used to determine the cell viability relative to that of cells treated with solvent (DMSO). Candidate compounds were considered if viability of ARID1A-KO cells was less than […] was more than 80%.

ARID1A-KO HCT116 cells = assay: as above; assay type: cell-based, human; design: key to Cell viability, KO: % viability relative to DMSO solvent-treated cells
Method: as §1

[1] = HCT116 ARID1A-WT, 10 μM for 5 days, relative to cells treated with solvent (DMSO)
[2] = HCT116 ARID1A-KO, 10 μM for 5 days, relative to cells treated with solvent (DMSO)

| Compound | Cell viability, WT (ARID1A-WT HCT116 cells; [1]) | Cell viability, KO (ARID1A-KO HCT116 cells; [2]) | Cell viability, WT (ARID1A-WT HCT116 cells) | Cell viability, KO (ARID1A-KO HCT116 cells) |
| --- | --- | --- | --- | --- |
| O=c1[nH]c2ccccc2n1C1CCN(Cc2ccc(-c3nc4cc5[nH]cnc5cc4nc3-c3ccccc3)cc2)CC1 | 84.5 | 124.843 | – | – |
| COc1cc2c(cc1OC)-c1[nH]nc(Nc3cccc(F)c3)c1C2 | 5.928 | 12.89 | – | – |
| COc1cc2nccc(Oc3ccc(NC(=S)NC(=O)c4ccccc4C)cc3)c2cc1OC | 99 | 107.0846 | – | – |
| O=C1Cc2c([nH]c3ccc(Br)cc23)-c2ncccc2N1 [1-Azakenpaullone] | 95.89 | 114.0704 | – | – |
| C1=Cc2nc1cc1ccc([nH]1)c(-c1ccccc1)c1nc(cc3ccc([nH]3)c2-c2ccccc2)C=C1 [5,15-DPP] | 90.1195 | 98.73 | – | – |
| O=c1[nH]cc(F)c(=O)[nH]1 [5-FU] | 32.167 | 24.07 | – | – |
| C=CCNC1=C2C[C@@H](C)C[C@H](OC)[C@H](O)[C@@H](C)/C=C(\C)[C@H](OC(N)=O)[C@@H](OC)/C=C\C=C(/C)C(=O)NC(=CC1=O)C2=O [17-AAG] | 8.063 | 8.214 | – | – |
| Cc1cccc(-c2nn(C(=S)Nc3ccccc3)cc2-c2ccnc3ccccc23)n1 [A83-01] | 77.92 | 104.8454 | – | – |
| Nc1ncnc2nc(-c3ccc(N4CCOCC4)nc3)cc(-c3cccc(Br)c3)c12 [ABT-702] | 94.11 | 111.7532 | – | – |
| N#C/C(=C/c1ccc(O)c(O)c1)C(=O)NCc1ccccc1 [AG490] | 152.9882 | 114.4173 | – | – |
| COc1cc(/C=C(\C#N)C(N)=O)cc(CSc2nc3ccccc3s2)c1O [AG825] | 85.83 | 80.86 | – | – |
| COC(=O)c1ccc(NCc2cc(O)ccc2O)cc1 [AG957] | 23.69 | 17.53 | – | – |
| CC(C)(C)c1cc(C=C(C#N)C#N)cc(Br)c1O [AG1024] | 161.1636 | 183.5477 | – | – |
| COc1cc2ncc(-c3ccccc3)nc2cc1OC [AG1296] | 190.9406 | 144.7899 | – | – |
| COc1cc2ncnc(Nc3cccc(Cl)c3)c2cc1OC [AG1478] | 149.2606 | 129.9442 | – | – |
| N#C/C(=C\c1ccc2oc(=O)[nH]c2c1)C(=O)c1ccc(O)c(O)c1 [AGL 2263] | 148.6873 | 172.9001 | – | – |
| Cl.Cl.Cl.Cl.Cl.Cl.Cl.Cl.c1cc(CN2CCCNCCNCCCNCC2)ccc1CN1CCCNCCNCCCNCC1 [AMD3100 octahydrochloride] | – | – | 102.6908 | 102.0251 |
| O=C(Nc1ccc2c(O)cc(S(=O)(=O)O)cc2c1)Nc1ccc2c(O)cc(S(=O)(=O)O)cc2c1 [AMI-1] | – | 85.52 | – | – |
| CC1CCN=C(N)S1.Cl (centres unmarked) [AMT, HCl] | 171.2223 | 139.818 | – | – |
| O=c1cc(-c2cccc3c2Sc2ccccc2S3)oc(N2CCOCC2)c1 [ATM kinase inhibitor] | 70.42 | 83.21 | – | – |
| O=C(NC(NC(=S)Nc1ccc(F)c([N+](=O)[O-])c1)C(Cl)(Cl)Cl)C(c1ccccc1)c1ccccc1 (centres unmarked) [ATM/ATR kinase inhibitor] | 59.07 | 76.77 | – | – |
| Clc1ccccc1CNCC1CCC(CNCc2ccccc2Cl)CC1 (centres unmarked) [AY 9944] | 31.41 | 50.15 | – | – |
| Cc1cn([C@H]2C[C@H](N=[N+]=[N-])[C@@H](CO)O2)c(=O)[nH]c1=O [AZT] | 71.38 | 60.27 | – | – |
| Cc1c2oc3c(C)ccc(C(=O)N[C@@H]4C(=O)N[C@H](C(C)C)C(=O)N5CCC[C@H]5C(=O)N(C)CC(=O)N(C)[C@@H](C(C)C)C(=O)O[C@@H]4C)c3nc-2c(C(=O)N[C@@H]2C(=O)N[C@H](C(C)C)C(=O)N3CCC[C@H]3C(=O)N(C)CC(=O)N(C)[C@@H](C(C)C)C(=O)O[C@@H]2C)c(N)c1=O [Actinomycin D] (I: T[dV]P[Sar][NMeV] / II: T[dV]P[Sar][NMeV]; ester I:1-I:C, II:1-II:C; linker I:N-II:N via Actinocin(9to1)) | 6.951 | 6.531 | – | – |
| N#CCCc1ccc2c(c1)-c1[nH]c3ccc([N+](=O)[O-])cc3c1CC(=O)N2 [Alsterpaullone, 2-cyanoethyl] | 6.82 | 14.55 | – | – |
| CCCCCCCCCCCCCCCc1cccc(O)c1C(=O)O [Anacardic acid] | 102.71 | 112.6464 | – | – |
| COc1cc2ncnc(Nc3ccc(NC(=O)c4ccccc4)cc3)c2cc1OC [Aurora kinase inhibitor II] | 53.336 | 60.46 | – | – |
| Nc1ncn([C@@H]2O[C@H](CO)[C@@H](O)[C@H]2O)c(=O)n1 [Azacytidine] | 86.54 | 43.39 | – | – |

| Compound | Cell viability, WT (ARID1A-WT HCT116 cells; [1]) | Cell viability, KO (ARID1A-KO HCT116 cells; [2]) | Cell viability, WT (ARID1A-WT HCT116 cells) | Cell viability, KO (ARID1A-KO HCT116 cells) |
| --- | --- | --- | --- | --- |
| CC(C)(c1ccc(OCC2CO2)cc1)c1ccc(OCC2CO2)cc1 (centres unmarked) [BADGE] | 93.59 | 107.888 | – | – |
| CC(C)C(C(=O)O)N1C(=O)/C(=C\c2ccc(Br)cc2)SC1=S (centres unmarked) [BH3I-1] | 99.91 | 109.7951 | – | – |
| O=C1Nc2cc(Br)ccc2/C1=C1/Nc2ccccc2/C1=N\O [BIO] | 87.19 | 107.4068 | – | – |
| CO/C1=C\C(C)=C\[C@@H](C)[C@@H](O)[C@@H](C)C/C(C)=C/C=C/[C@H](OC)[C@@H]([C@@H](C)[C@@H](O)[C@H](C)[C@@]2(O)C[C@@H](O)[C@H](C)[C@@H](C(C)C)O2)OC1=O [Bafilomycin AI] | 4.059 | 4.345 | – | – |
| Nc1nc(OCc2ccccc2)c2nc[nH]c2n1 [Benzylguanine] | – | – | 88.84 | 105.1044 |
| CN(C)CCCn1cc(C2=C(c3c[nH]c4ccccc34)C(=O)NC2=O)c2ccccc21.Cl [Bisindolymaleimide I, HCl] | 8.077 | 6.106 | – | – |
| C=C1C(=O)OC(CCCCCCCC)C1C(=O)O (centres unmarked) [C75] | 103.4877 | 93.63 | – | – |
| CC1=NN(c2ccc(C(=O)O)cc2)C(=O)/C1=C\c1ccc(-c2cc(C)c(C)cc2[N+](=O)[O-])o1 [C646] | – | – | 93.09 | 115.173 |
| CCCNC(=O)[C@H]1O[C@@H]1C(=O)N[C@H](C(=O)N1CCC[C@H]1C(=O)O)[C@@H](C)CC [CA-074] | 107.6022 | 115.0436 | – | – |
| Cc1nc(N)sc1-c1ccnc(Nc2cccc([N+](=O)[O-])c2)n1 [Cdk 2/9 inhibitor] | 6.309 | 14.26 | – | – |
| Nc1nc(Nc2ccc(S(N)(=O)=O)cc2)nn1C(=S)Nc1c(F)cccc1F [Cdk½ inhibitor III] | 8.59 | 18.12 | – | – |
| NC(=O)c1ccc2nc(-c3ccc(Oc4ccc(Cl)cc4)cc3)[nH]c2c1 [Chk2 inhibitor II] | 104.0524 | 139.2543 | – | – |
| CC(C)(O)/C=C/C(=O)[C@](C)(O)[C@H]1[C@H](O)C[C@@]2(C)[C@@H]3CC=C4[C@@H](C=C(O)C(=O)C4(C)C)[C@]3(C)C(=O)C[C@]12C [Cucurbitacin I] | 13.95 | 15.25 | – | – |
| C=C1[C@@H](C)[C@H]2[C@H](Cc3ccccc3)NC(=O)[C@]23[C@H](OC(C)=O)/C=C/[C@@](C)(O)C(=O)[C@@H](C)C/C=C/[C@H]3[C@@H]1O [Cytochalasin D] | 63 | 59.86 | – | – |
| NC(=O)c1ccc(-c2nc(-c3ccc4c(c3)OCCO4)c(-c3ccccn3)[nH]2)cc1 [D4476] | – | – | 93.4 | 124.271 |
| C[C@H](NC(=O)Cc1cc(F)cc(F)c1)C(=O)N[C@H](C(=O)OC(C)(C)C)c1ccccc1 [DAPT] | 93.12 | 103.8309 | – | – |
| NCCCC(N)(C(=O)O)C(F)F (centres unmarked) [DFMO] | 98.8 | 117.8191 | – | – |
| O=S(=O)(O)c1cc(N=C=S)ccc1C=Cc1ccc(N=C=S)cc1S(=O)(=O)O [DIDS] | 97.04 | 107.2053 | – | – |
| CN(C)c1nc2c(Br)c(Br)c(Br)c(Br)c2[nH]1 [DMAT] | 113.7397 | 116.7866 | – | – |
| COC(=O)CNC(=O)C(=O)OC [Dimethyloxalylglycine] | 95.769 | 119.9436 | – | – |
| CCCCCCCC(=O)OCCOC(=O)CCCCCCC [Dioctanoylglycol] | 99.78 | 109.4112 | – | – |
| CCOC(=O)[C@H]1O[C@@H]1C(=O)N[C@@H](CC(C)C)C(=O)NCCC(C)C [E-64d] | 100.8821 | 100.5678 | – | – |
| Nc1[nH]nc2nnc(-c3c(-c4ccccc4)nn4ccccc34)cc12 [ERK inhibitor II] | 103.8555 | 160.6702 | – | – |
| CCCCCC#CCC#CCC#CCC#CCCCC(=O)O [ETYA] | 95.86 | 110.2846 | – | – |
| COc1ccc2c3c([nH]c2c1)[C@H](C=C(C)C)N1C(=O)[C@@H]2CCCN2C(=O)[C@@H]1C3 [Fumitremorgin C] | 90.41 | 97.39 | – | – |
| COC(=O)[C@H](CC(C)C)NC(=O)c1ccc(NC[C@@H](N)CS)cc1-c1ccccc1 [GGTI-286] | – | 123.5827 | – | – |
| COc1ccc(C[C@H]2NC[C@H](O)[C@H]2OC(C)=O)cc1 [anisomycin] | – | 7.327 | – | – |
